In brackets after ≈: the same amount, converted by molar mass.
Assays:
AChE [1] = system: AChE; parameters: method as in Itoh et al. [85]; conditions: 3 mg/kg; ref Itoh et al. [85]; cited from earlier work
AChE [2] = system: AChE; parameters: method as in El-Hassan et al. [86]; conditions: ref El-Hassan et al. [86]; cited from earlier work
[3] = DPPH radical scavenger activity
Method: The evaluation of the antioxidant activity using the 2,2-diphenyl-1-picrylhydrazyl radical (DPPH) was performed according to the method proposed by Mensor et al., with adaptations. The samples were dissolved in MeOH at concentrations ranging from 1.0 to 200 μg/mL. A portion of 250 μL of each sample was added to a 96-well microplate. MeOH and pyrogallol (50 µg/mL) were employed as negative and positive controls, respectively. Then, 100 μL of either MeOH (blank wells) or DPPH solution (120 μg/mL, reaction wells) was added to the microplate. The reading was performed on a microplate reader (EL808IU-Biotek model, Biotek, Winooski, VT, USA), at 5 min intervals for a total of 45 min, at 515 nm. The percentage of radical scavenging activity (%RSA) was calculated using the following equation: % RSA = ((AC − AS)/AC) × 100, where AC is the absorbance of control and AS is the absorbance of samples taken at 35 min. The results were expressed in EC50 (effective concentration for 50% capture of the radicals) determined by non-linear regression using GraphPad Prism, version 6.0.

[4] = β-Carotene/linoleic acid co-oxidation assay
Method: The evaluation of the antioxidant activity using the β-carotene/linoleic acid co-oxidation system was performed according to Duarte-Almeida et al., with adaptations. The extracts were solubilized in MeOH (2.2 mg/mL) and further diluted to concentrations ranging from 3.125 to 200 μg/mL. An aliquot of 25 μL of sample solutions were added in the 96-well microplate. 25 mg of linoleic acid and 100 mg Tween 20 (Sigma, St. Louis, MO, USA) were added to a round-bottom flask containing 1 mL of a β-carotene solution (1 mg/mL, Sigma, St. Louis, MO, USA) in chloroform. The latter was removed in a rotatory evaporator and, then, 50 mL of aerated water was added to the flask, affording the β-carotene emulsion. Portions of 250 μL of the freshly prepared emulsion were added to the wells corresponding to the odd columns of a microplate. […] Readings were performed immediately at 470 nm. After the first reading, the microplate was incubated at 45 °C and the kinetic cycle was performed with readings at 15 min intervals for a total of 120 min. The antioxidant activity was expressed as % of inhibition of lipid peroxidation (%I), using the formula (I% = Ac (initial abs − Final abs) − Aam (final abs − Initial abs)/Ac × 100). Assays were performed in triplicate and IC50 values were determined by non-linear regression using GraphPad Prism, version 6.0 (GraphPad Software, San Diego, CA, USA).

[5] = Thiobarbituric acid reactive substances (TBARS) assay; parameters: species or system bovine
Method: The evaluation of antioxidant activity using the TBARS assay, with adaptations. Briefly, the samples were solubilized in methanol (50.0 to 31.25 μg/mL) and a portion of 25 μL of each extract solution was added to 10 mL test tubes in triplicate (two reaction tubes and one control). The tubes corresponding to the blank, negative and positive controls were prepared by adding 25 μL of deionized water, MeOH or propylgalate (Sigma, St. Louis, MO, USA, 0.1 mM), respectively. The phospholipid liposomes were prepared using bovine brain extract type VII (Sigma Aldrich, St. Louis, MO, USA, 10 mg/mL) in phosphate buffered saline (PBS) solution. The suspension was subjected to an ultrasonic bath until the formation of the liposomes. […] The butanolic phase was removed and transferred to a 96-well microplate, and the absorbance was recorded on a Multiskan Go microplate reader (Thermo Scientific, Whaltham, MA, USA) at 532 nm. The percentage of inhibition (%I) of lipid peroxidation was calculated as: %I = ((AC − AS)/AC) × 100 where AC is the absorbance of control, AS is the absorbance of samples. Assays were performed in triplicate and IC50 values were determined by non-linear regression using GraphPad Prism, version 6.0 (GraphPad Software, San Diego, CA, USA). […]

[6] = target: T1, AChE from Electropardus electricous type VI-S (Electrophorus electricus, UniProt O42275); test: AChE inhibition microplate assay (Ellman); type: biochemical; conditions: 400 μg/mL; read-out: Inhibition of AChE Microplate (%I)
T1 construct: purchased Sigma-Aldrich, St. Louis, MO, USA type VI-S (catalogue number not given)
Method: AChE inhibition assay was performed on a 96-well microplate according to Ellman’s method with adaptations. Initially, the extracts were solubilized on MeOH, at 20 mg/mL, and diluted to 4 mg/mL using Tris/HCl buffer solution (50 mM, pH 8.0). A portion of 25 µL of the samples (4 mg/mL) were added to the wells of the microplate, as well as 50 μL of 0.1% BSA solution in Tris/HCl Buffe (pH 8.0), 125 μL of DTNB in Tris/HCl (3 mM) containing NaCl (10 mM) and MgCl2 (20 mM). Subsequently, 25 μL of the ATCI aqueous solution (15 mM) was added to all wells. Then, a background reading was performed at 405 nm using microplate reader (Multiskan Go, Thermo Scientific, Whaltham, MA, USA). The enzymatic reaction was initiated after the addition of 25 µL of AChE solution (AChE from Electropardus electricous type VI-S, 0.2 U/mL, Sigma-Aldrich, St. Louis, MO, USA) in Tris/HCl buffer (50 mM, pH 8.0) containing 0.1% BSA. The kinetic cycle was performed in a period of 25 min, with readings at 5 min intervals, at 405 nm. Physostigmine (Eserine, Sigma, St. Louis, MO, USA) was employed as the positive control. […] The assay was performed in triplicate and the % of inhibition (%I) was calculated according to the following equation: %I = [(a − b)/a] × 100, where a = ΔA/min of control; b = ΔA/min of test sample; ΔA = change in absorbance between time x and time zero. […]

[7] = target: T2, acetylcholinesterase enzyme (Electropardus electricous type VI-S) (Electrophorus electricus, UniProt O42275); test: AChE bioautographic assay (TLC); type: biochemical; parameters: key: -: not active; +: slight inhibition; ++++: strong inhibition; conditions: intensity of white bands
T2 construct: purchased Sigma-Aldrich, St. Louis, MO, USA type VI-S (catalogue number not given)
Method: The bioautographic assay was performed by thin layer chromatography (TLC) according to the method proposed by Marston, Kissling and Hostettman. The extracts were solubilized in methanol (Merck) at 20 mg/mL, and a portion of 10 μL of this solution was applied on a TLC plate (silica gel 60 F254, Merck, Darmstadt, Germany), which was eluted with CHCl3:MeOH (9:1). The acetylcholinesterase enzyme (Electropardus electricous type VI-S, Sigma-Aldrich, St. Louis, MO, USA) solution was prepared by diluting 1 KU of the enzyme in 30 mL of Tris/HCl buffer, pH 7.8, with the addition of 30 mg of bovine serum albumin (BSA). The enzyme solution was sprayed on the TLC plate and incubated in a humid chamber at 37 °C for 20 min. The substrate solution was prepared using 1-naphthyl acetate (2.5 mg/mL) and Fast Blue B salt (2.5 mg/mL), and sprayed on the TLC plate after the incubation period. […] The result was expressed by the intensity of the white bands observed.

T2 sequence (O42275 24-633): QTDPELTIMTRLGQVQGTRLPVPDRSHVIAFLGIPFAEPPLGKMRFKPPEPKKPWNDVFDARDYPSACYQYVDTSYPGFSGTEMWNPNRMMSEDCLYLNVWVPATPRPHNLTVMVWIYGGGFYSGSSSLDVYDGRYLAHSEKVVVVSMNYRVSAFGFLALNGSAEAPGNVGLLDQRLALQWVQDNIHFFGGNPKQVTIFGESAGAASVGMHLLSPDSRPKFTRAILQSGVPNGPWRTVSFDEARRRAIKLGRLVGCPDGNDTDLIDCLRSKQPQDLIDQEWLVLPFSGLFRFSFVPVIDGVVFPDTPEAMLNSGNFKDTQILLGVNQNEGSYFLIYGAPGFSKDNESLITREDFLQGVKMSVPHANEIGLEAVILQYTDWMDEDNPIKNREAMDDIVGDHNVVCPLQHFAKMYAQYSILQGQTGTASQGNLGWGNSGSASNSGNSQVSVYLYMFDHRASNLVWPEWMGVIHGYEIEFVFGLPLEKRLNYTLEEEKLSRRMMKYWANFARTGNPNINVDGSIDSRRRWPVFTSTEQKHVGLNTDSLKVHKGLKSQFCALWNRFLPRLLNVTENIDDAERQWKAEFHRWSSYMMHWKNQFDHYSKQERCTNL
T1 sequence (O42275 24-633): as above

## COc1cc2c(c(OC)c1OC)-c1c(cc(OC)c(OC)c1OC)C[C@](C)(O)[C@@H](C)C2 [Schisandrin]
AChE [1]
  activity in vivo: active

## COc1cc([C@H]2OC[C@H]3[C@@H]2CO[C@@H]3c2cc(OC)c(O)c(OC)c2)cc(OC)c1O [Syringaresinol]
AChE [2]
  IC50 AChE inhibition in vitro: 200 µg/mL (≈ 478 µM)

## Oc1cccc(O)c1O [Pyrogallol, pyrogallol, reference compound]
[3]
  Antioxidant Activity (IC50-µg/mL) DPPH Radical Sequestration: 1.14 ± 0.15 µg/mL

## O=c1c(O)c(-c2ccc(O)c(O)c2)oc2cc(O)cc(O)c12 [Quercetin, quercetin, reference compound]
[4]
  Antioxidant Activity (IC50-µg/mL) β-Carotene/linoleic Acid: 0.3 ± 0.1 µg/mL

## CCCOC(=O)c1cc(O)c(O)c(O)c1 [Propylgalate, propylgalate, reference compound]
[5]
  Antioxidant Activity (IC50-µg/mL) TBARS Assay: <20 µg/mL

## CNC(=O)Oc1ccc2c(c1)[C@]1(C)CCN(C)[C@@H]1N2C [Physostigmine, reference compound]
[6]
  inhibition at 400 µg/mL: 89.8 ± 1.16%
[7]
  Inhibition of AChE TLC: ++++
